Here are results for ten compounds from patent EP0192976A1, “Compounds having antihyperlipemic activity, processes for the preparation thereof and pharmaceutical compositions containing them” (BOEHRINGER BIOCHEMIA ROBIN S.p.A., priority 1985, dated 1986).

Where two headings read alike, the source gives them in different places.

In data set [1] the test system is thrombosis induced by the administration of arachidonic acid, as well as colla- gene and adrenalin. The experiment in a line: Mouse antithrombotic assay (di Minno and Silver). Type of data set: in vivo. Conditions: orally administered at doses from 100 to 250 mg/kg; thrombosis induced by arachidonic acid, and by collagen and adrenalin. From the text:
Exper. Therap. 225, 57 (1983).

In data set [2] the test system is hypercholesterolemic animals (Nath diet). Put plainly: Hypocholesterolemic/hypotriglyceridemic activity in hypercholesterolemic rats (Nath diet). Type of data set: in vivo, Male Sprague-Dawley rats. Conditions: oral. On the procedure:
(§1) The single compounds were administered orally at single equimolecular gradually increasing doses, in order to comparatively evaluate their hypocholesterolemic and hypotriglyceridemic activities. Normolipidemic, and hypercholesterolemic and hypertriglyceridemic rats, following to administration of diets respectively enriched in cholesterol and cholic acid (Nath diet) or 79.5% fructose, were used.
(§2) Male Sprague-Dawley rats of 180-200 g body weight were used. The compounds under test were administered as 1% tylose suspension, by means of gastric probe, 10 animals per dose in comparison with controls, treated with the sole vehicle.
Four dose levels: 1, 2, 4, 8 10^-3 mol/kg were used for each compound under test. The body growth and liver weight were evaluated.
(§3) In the serum the following values were determined: • a) total cholesterol, by enzymatic method; • b) HDL cholesterol, by enzymatic method, after precipitation of the other lipoproteins by addition of phospho- tungstic acid; • c) triglycerides by enzymatic method, i.e. by means of enzymatic hydrolysis and dosage of the formed glycerol.
(§4) The dosage of the liver triglycerides has been carried out by enzymatic method on the evaporated liver extract with chloroform:methanol 2:1.
(§5) The results were evaluated and expressed as % variation with respect to the control groups.

In data set [3] the test system is Adrenalin induced lypolysis. The experiment in a line: Antilipolytic activity, adrenalin induced lipolysis (free fatty acids). Type of data set: in vivo. As to conditions: 1·10^-3 mol/kg oral. As to the method:
(§6) The compounds were administered orally. […] The results are expressed as µEq/1 of free fatty acids.
10 Animals per group - Feeded and housed for one weed, then administered orally and stimulated with adrenalin 1 mg/kg i.p., respectively 30 and 60 min. before killing.

For a further data set, the system named is Normolipolysis. The experiment in a line: Antilipolytic activity, normolipolysis (free fatty acids). It is filed as in vivo. As to conditions: for antilipolytic activity: oral, under normal feeding conditions and in lipolysis induced by fasting or adrenalin. As to the method: as §6
10 Animals per group - Normally feeded for 7 days, then administered with the test compounds.

The subject of data set [4] is ear marginal veins. Conditions: guinea pig, in vivo.
Excerpt: (§7) Such a side-effect may be experimented on male albino Guinea pigs, weighing 300-400 g, normally feeded and housed in silent room, by observing the vasodilation of ear marginal veins, after administration of the test compounds.
The subject of data set [5] is Fasting induced lipolysis. Put plainly: Antilipolytic activity, fasting induced lipolysis (free fatty acids). Conditions: fasted for 24 hours. It is filed as in vivo. As to the method:
as §6
10 Animals per group - Normally feeded for 6 days, then fasted for 24 hours and orally administered with the test compounds.

Data set [6] has as its system fructose induced hypertriglyceridemia. Put plainly: Fructose induced hypertriglyceridemia. As to conditions: fructose and Triton induced hypertriglyceridemias (test not given). It is filed as in vivo, Male Sprague-Dawley rats. On the procedure: as §1, §2, §3, §4, §5
The hypotriglyceridemyzing activity of the compounds of the invention, as already mentioned, was evaluated in fructose and Triton induced hypertriglyceridemias, in comparison with the following standard: 1,10-bisL2-(hydroxyethyl)thio]decane (3) and its nicotinate (4) and nicoti- noyloxymethylcarbonyloxy ester (5).
All the compounds were administered 'at equimolecular gradual dosages.

For data set [7], the system named is ear marginal veins. Put plainly: Vasodilation of ear marginal veins (flushing side-effect). As to conditions: Guinea pigs, 1·10^-3 mol/kg.
Excerpt: as §7
The mark [8] stands for this setting: 4·10^-3 mol/kg, % variation versus controls.
Setting [9] is: 30', adrenalin 1 mg/kg i.p. 30 min before killing.
The mark [10] stands for this setting: 60', adrenalin 1 mg/kg i.p. 60 min before killing.
Where [11] appears, read: 2 hours after 1·10^-3 mol/kg oral single dose, normally fed.
Where [12] appears, read: 4 hours after 1·10^-3 mol/kg oral single dose, normally fed.
Where [13] appears, read: 8 hours after 1·10^-3 mol/kg oral single dose, normally fed.
Setting [14] is: Basal, normally fed 7 days, group later given 1·10^-3 mol/kg oral single dose.
[15] abbreviates: 2 hours after 1·10^-3 mol/kg oral single dose.
Where [16] appears, read: 4 hours after 1·10^-3 mol/kg oral single dose.
Setting [17] is: 8 hours after 1·10^-3 mol/kg oral single dose.

On to `CCC(C)C(NC(=O)c1cccnc1)C(=O)OCCSCCCCCCCCCCSCCOC(=O)C(NC(=O)c1cccnc1)C(C)CC` (centres unmarked), for which, in data set [1], the protection from thrombosis entry is “protect the mouse from thrombosis”.
For `Cc1cnc(C(=O)NCC(=O)OCCSCCCCCCCCCCSCCOC(=O)CNC(=O)c2cnc(C)cn2)cn1` [1,10-bis[2-(5-methylpyrazinoylglycyl)ethylthio]decane], the protection from thrombosis result in data set [1] is “protect the mouse from thrombosis”.
The same measure, in the same setting: with `O=C(NC(Cc1ccccc1)C(=O)OCCSCCCCCCCCCCSCCOC(=O)C(Cc1ccccc1)NC(=O)c1cccnc1)c1cccnc1` (centres unmarked) [1,10-bis[2-(nicotinoylphenylalanyl)ethylthio]decane] the entry was “protect the mouse from thrombosis”.
Take `O=C(CNC(=O)c1cccnc1)OCCSCCCCCCCCCCSCCOC(=O)CNC(=O)c1cccnc1` [Compound 1]: the liver weight result in data set [2] (4·10^-3 mol/kg) is “no substantial changes”. For the same compound, the “decrease in hematic triglycerides” value in data set [2] (setting [8]) amounted to 4%. Moreover, the “decrease in hepatic triglycerides” value in data set [2] (setting [8]) was 48%. Besides, the “decrease of total plasmatic cholesterol” value in data set [2] (setting [8]) came out at 37%. Moreover, the “increase in HDL cholesterol” value in data set [2] (setting [8]) is 7%. Moreover, the protection from thrombosis entry in data set [1] was “protect the mouse from thrombosis”. The figures for the FFA in data set [3] (setting [9]) and in data set [3] (setting [10]) were 450 μEq/l and 400 μEq/l, respectively. Further, the free fatty acids in the data set with Normolipolysis (setting [11]) came to 200 µEq/1; in the data set on Normolipolysis (setting [12]), 225 µEq/1; in the data set on Normolipolysis (setting [13]), 270 µEq/1; in the data set with Normolipolysis (setting [14]), 230 µEq/1; in data set [5] (setting [15]), 480 µEq/1; in data set [5] (setting [16]), 430 µEq/1. Also, the free fatty acids in data set [5] (setting [17]) is reported as 400 µEq/1. In addition, the “Vasodilating effect: Beginning” value in the data set on ear marginal veins [4] is reported as “==”. Besides, in the data set with ear marginal veins [4], the “Vasodilating effect: Beginning of disappearance” value was “==”. Moreover, the “Vasodilating effect: Maximal effect” value in the data set on ear marginal veins [4] is “==”. Moreover, the “triglyceride hepatic concentration, percent variations” value in data set [6] is reported as -10 to +10%.
In the case of `O=C(O)c1cccnc1` [Compound 2, nicotinic acid], the FFA in data set [3] (setting [9]) is given as 340 μEq/l; in data set [3] (setting [10]) it was 650 μEq/l. Further, the free fatty acids in the data set on Normolipolysis (setting [11]) was found to be 110 µEq/1; in the data set with Normolipolysis (setting [12]) it was 160 µEq/1; with Normolipolysis (setting [13]) it was 560 µEq/1; with Normolipolysis (setting [14]), 260 µEq/1; in data set [5] (setting [15]) it was 180 µEq/1; in data set [5] (setting [16]), 190 µEq/1. Besides, the free fatty acids in data set [5] (setting [17]) stood at 950 µEq/1. Also, in the data set with Normolipolysis, the antilipolytic activity result is given as “proved to have antilipolytic activity”. Also, the “Vasodilating effect: Beginning” value in the data set with ear marginal veins [7] is recorded as 3'. In the data set with ear marginal veins [7], the “Vasodilating effect: Beginning of disappearance” value is 20'. The “Vasodilating effect: Maximal effect” value with ear marginal veins [7] is 6'.
Consider `OCCSCCCCCCCCCCSCCO` [Compound 3, 1,10-bis[2-(hydroxyethyl)thio]decane], for which the “triglyceride hepatic concentration, increases” value in data set [6] is 40-50%.
For the compound `O=C(OCCSCCCCCCCCCCSCCOC(=O)c1cccnc1)c1cccnc1` [Compound 4], in data set [2] (2·10^-3 mol/kg, versus controls), the “preliminar increase of the total cholesterol” value amounted to 10%. For the same compound, the HDL concentration result in data set [2] (all the assayed doses, the decrease lessened with increasing dose) is listed as “marked decrease”. Moreover, the triglyceride hematic concentration result in data set [2] (all the tested doses, tendency to decrease with increasing dose) is listed as “always higher than that in the control animals”. Moreover, the “decrease of the total cholesterol versus controls” value in data set [2] (doses above 2·10^-3 mol/kg, did not vary increasing the dose) worked out at 50%. Further, the liver weight entry in data set [2] (over the tested doses) was “gradual increase”. Also, the figures for the FFA in data set [3] (setting [9]) and in data set [3] (setting [10]) were 295 μEq/l and 625 μEq/l, respectively. The free fatty acids in the data set on Normolipolysis (setting [11]) stood at 120 µEq/1; in the data set on Normolipolysis (setting [12]) it was 155 µEq/1; in the data set with Normolipolysis (setting [13]) it was 450 µEq/1; with Normolipolysis (setting [14]), 230 µEq/1; in data set [5] (setting [15]) it was 250 µEq/1; in data set [5] (setting [16]) it was 240 µEq/1. The free fatty acids in data set [5] (setting [17]) came out at 970 µEq/1. In addition, the “Vasodilating effect: Beginning” value in the data set with ear marginal veins [4] is listed as 10'. In addition, the “Vasodilating effect: Beginning of disappearance” value in the data set with ear marginal veins [4] is 48'. In addition, the “Vasodilating effect: Maximal effect” value in the data set on ear marginal veins [4] is reported as 25'. In data set [6], the “triglyceride hepatic concentration, increases” value is given as 40-50%.
With `O=C(COC(=O)c1cccnc1)OCCSCCCCCCCCCCSCCOC(=O)COC(=O)c1cccnc1` [Compound 5, 1,10-bis[2-(nicotino-yloxymethylcarbonyloxy)ethylthio]decane], the “concentration of hepatic triglycerides” value in data set [2] (4·10^-3 mol/kg) is “increase”. Further, in data set [2] (setting [8]), the “decrease in hematic HDL cholesterol” value is reported as 6%. Also, the “decrease in hematic triglycerides” value in data set [2] (setting [8]) was 34%. Besides, the “decrease of total plasmatic cholesterol” value in data set [2] (setting [8]) worked out at 30%. The FFA came out at 270 μEq/l in data set [3] (setting [9]) and 610 μEq/l in data set [3] (setting [10]). Further, the free fatty acids in the data set on Normolipolysis (setting [11]) is 120 µEq/1; in the data set with Normolipolysis (setting [12]), 170 µEq/1; in the data set on Normolipolysis (setting [13]), 260 µEq/1; with Normolipolysis (setting [14]), 240 µEq/1; in data set [5] (setting [15]) it was 207 µEq/1; in data set [5] (setting [16]), 228 µEq/1. The same compound came in with a free fatty acids in data set [5] (setting [17]) of 744 µEq/1. Besides, in the data set on Normolipolysis, the antilipolytic activity result is given as “proved to have antilipolytic activity”. In addition, the “Vasodilating effect: Beginning” value with ear marginal veins [4] is listed as 13'. Also, the “Vasodilating effect: Beginning of disappearance” value with ear marginal veins [4] is reported as 51'. Also, the “Vasodilating effect: Maximal effect” value with ear marginal veins [4] is given as 30'. Moreover, the “triglyceride hepatic concentration, percent variations” value in data set [6] is reported as -10 to +10%.
As for `O=C(CNC(=O)c1cncc(Br)c1)OCCSCCCCCCCCCCSCCOC(=O)CNC(=O)c1cncc(Br)c1` [Example 5, 1,10-Bis[2-(5-bromn-nicotinoylglicyl)ethyl-thio]decane], the protection from thrombosis result in data set [1] is reported as “protect the mouse from thrombosis”.
`CC(NC(=O)c1cccnc1)C(=O)OCCSCCCCCCCCCCSCCOC(=O)C(C)NC(=O)c1cccnc1` (centres unmarked) [Example 7, 1,10-bis[2-(nicotinoyialanylethyl)thio]decane]: the protection from thrombosis result in data set [1] was “protect the mouse from thrombosis”.
